US20040121965A1, “Method of treating resistant tumors” (Wyeth Holdings Corporation, priority 2002, published 2004)
Marks after values point to notes of the source that are not given here.

What was measured:
[1] = test system: Human Epidermoid Carcinoma KB-3-1; assay: Growth of tumors in nude mice, KB-3-1 xenograft; type: in vivo; settings: KB-3-1; vincristine 1 mg/kg IP, days 1,5,9
Protocol: (§1) 2.4. Growth of Tumors in Nude Mice.
In these experiments, xenografts are implanted subcutaneously into the flanks of nude mice. […] Relative tumor mass compared to controls are assessed during the 21-day post-staging period.
Groups of 5 female nu/nu mice are injected with 1.5×10^6 KB-3-1 (A) or Lox cells (B). […] Relative tumor growth is determined during the experiment and % T/C calculated. Statistical analyses are Student's t-test of treated time points vs. vehicle (*, P<0.05; **, P<0.01)

[2] = test system: HCT-15 tumor; assay: Growth of tumors in nude mice, HCT-15 xenograft; type: in vivo; settings: vincristine 1 mg/kg IP, days 1,5,9
Text: as §1

[3] = test system: MX-1W tumor; assay: Growth of tumors in nude mice, MX-1W xenograft; type: in vivo; settings: MX-1W; vincristine 1 mg/kg IP, days 1,5,9
Text: as §1

[4] = test system: Human Melanoma Carcinoma Lox; settings: Lox; vincristine 1 mg/kg IP, days 1,5,9
[5] = test system: DLD-1 tumor; assay: Growth of tumors in nude mice, DLD-1 xenograft; type: in vivo; settings: vincristine 1 mg/kg IP, days 1,5,9
Text: as §1

[6] = test system: human carcinoma xenografts; assay: Growth of tumors in nude mice, several xenograft models and tolerated dose; type: in vivo; settings: DLD-1, MX-1W or HCT-15 tumors; at or near the MTD
Text: as §1

[7] = test system: KB-8.5 tumor; assay: Growth of tumors in nude mice, KB-8-5 xenograft; type: in vivo; settings: vincristine 1 mg/kg IP, days 1,5,9
Text: as §1

CC[C@]1(O)C[C@H]2CN(CCc3c([nH]c4ccccc34)[C@@](C(=O)OC)(c3cc4c(cc3OC)N(C=O)[C@H]3[C@@](O)(C(=O)OC)[C@H](OC(C)=O)[C@]5(CC)C=CCN6CC[C@]43[C@@H]65)C2)C1 [vincristine]
% T/C on day 7 [1]: 15** % | % T/C on day 14 [1]: 12** % | % T/C on day 21 [1]: 17** % | % T/C on day 9 [2]: 91% | % T/C on day 13 [2]: 81% | % T/C on day 17 [2]: 95% | % T/C on day 21 [2]: 107% | % T/C on day 7 [3]: 65% | % T/C on day 14 [3]: 61% | % T/C on day 7 [4]: 13** % | % T/C on day 12 [4]: 3** % | % T/C on day 7 [5]: 113% | % T/C on day 14 [5]: 119% | % T/C on day 21 [5]: 177% | response of tumors [6]: no response | % T/C on day 6 [7]: 71% | % T/C on day 14 [7]: 85% | % T/C on day 21 [7]: 81%
